Patent US4042702A, “Halogen pyrazole derivatives, a method for producing these halogen pyrazole derivatives, medicaments containing and methods of using them” (Byk Gulden Lomberg Chemische Fabrik GmbH, priority 1973, dated 1977)

Columns and labels:
[1] = system: granulation tissue formation (cotton granuloma) in rats; assay: Retardation of the granulation tissue formation (cotton granuloma, chronic inflammation model); assay type: in vivo, rat; details: for ED20: po, 168 h, 7 × p.o., rats, 20% inhibition, cotton granuloma; for relative effect (Retardation of the granulation tissue formation): relative to phenyl butazone (I) = 1.0
Description: (§1) The antiinflammatory action of the standard preparation and the compounds of this invention, respectively, was determined
on a chronic inflammation model (cotton granuloma) wherein the influence of the compounds on the granulation tissue formation after subcutaneous implantation of cotton plugs in rats was studied after daily administration on 7 following days in taking pattern from the method described by Winter et al. [J. Pharmacol. exp. Therap.

[2] = system: ultraviolet erythema of the skin on the back of the guinea pig; assay: Retardation of the UV-Erythema (skin on the back of the guinea pig); assay type: in vivo; details: for ED25: Cavia porcellus, light or radiation study, po, guinea pig, retardation of 25 % 5 hours after irradiation; for relative effect (Retardation of the UV-Erythema): relative to phenyl butazone (I) = 1,0
Description: as §1
on the retardation at the ultraviolet erythema of the skin on the back of the guinea pig [Winder et al. Arch. int. Pharmacodyn. 116 (1958) 261], wherein in table 1 those doses are shown which cause a retardation of 25 % 5 hours after irradiation;

[3] = system: carrageenin edema of the rear paw of the rat; assay: Retardation of the Carrageenin Edema of the rear paw of the rat; assay type: in vivo; details: for ED25: po, rat, single administration, mean retardation of 25 % 3 and 5 hours after administration; for relative effect (Retardation of the Carrageenin Edema): relative to phenyl butazone (I) = 1.0
Description: as §1
on the retarding inflammation at the carrageenin edema of the rear paw of the rat [Winter et al. Proc. Soc. exp. Biol. Med. 111 (1962) 544], wherein in table 2 those doses are shown which cause a mean retardation of 25 % 3 and 5 hours after single administration of the substance to be tested;

rats = details: 7 × p.o., 5 % of animals died within 10 days
in vivo [4] = details: rat, po
in vivo [5] = details: mouse, po

**Q.** Which ED20 [1] does the source give for CCCCC1C(=O)N(c2ccccc2)N(c2ccccc2)C1=O [I, phenyl butazone, reference compound] here?
**A.** 100 mg/kg/day

**Q.** And the “relative effect (Retardation of the granulation tissue formation)” value [1]?
**A.** 1.0

**Q.** And the ED25 [2]?
**A.** 1 mg/kg

**Q.** What about the “relative effect (Retardation of the UV-Erythema)” value [2] of the same molecule?
**A.** 1,0

**Q.** And the ED25 [3]?
**A.** 10 mg/kg

**Q.** What about the “relative effect (Retardation of the Carrageenin Edema)” value [3] of the same molecule?
**A.** 1.0

**Q.** Which LD5 (rats) does the source give for O=C(O)Cc1c(-c2ccc(Cl)cc2)nn(-c2ccccc2)c1Cl [II, 5-chloro-3-p-chlorophenyl-1-phenyl-pyrazole-4-acetic acid] here?
**A.** 18 mg/kg/die

**Q.** What about the ED20 [1] of the same molecule?
**A.** 3 mg/kg/day

**Q.** And the “relative effect (Retardation of the granulation tissue formation)” value [1]?
**A.** 33.3

**Q.** What about the selectivity ratio (in vivo [4]) of the same molecule?
**A.** 6

**Q.** What about the ED25 [2] of the same molecule?
**A.** 0.15 mg/kg

**Q.** What about the “relative effect (Retardation of the UV-Erythema)” value [2] of the same molecule?
**A.** 6.7

**Q.** What about the LD50 at 240 h (in vivo [5]) of the same molecule?
**A.** 530 mg/kg

**Q.** What about the selectivity ratio (in vivo [5]) of the same molecule?
**A.** 353

**Q.** And the ED25 [3]?
**A.** 1.5 mg/kg

**Q.** And the “relative effect (Retardation of the Carrageenin Edema)” value [3]?
**A.** 6.7

**Q.** Which LD5 (rats) does the source give for O=C(O)Cc1c(-c2ccccc2)nn(-c2ccccc2)c1Cl [III, 5-chloro-1,3-diphenyl-pyrazole-4-acetic acid] here?
**A.** 100 mg/kg/die

**Q.** What about the ED20 [1] of the same molecule?
**A.** 8 mg/kg/day

**Q.** What about the “relative effect (Retardation of the granulation tissue formation)” value [1] of the same molecule?
**A.** 12.5

**Q.** And the selectivity ratio (in vivo [4])?
**A.** 12.5

**Q.** What about the ED25 [2] of the same molecule?
**A.** 0.25 mg/kg

**Q.** What about the “relative effect (Retardation of the UV-Erythema)” value [2] of the same molecule?
**A.** 4.0

**Q.** What about the LD50 at 240 h (in vivo [5]) of the same molecule?
**A.** 1200 mg/kg

**Q.** What about the selectivity ratio (in vivo [5]) of the same molecule?
**A.** 1200

**Q.** What about the ED25 [3] of the same molecule?
**A.** 1 mg/kg

**Q.** And the “relative effect (Retardation of the Carrageenin Edema)” value [3]?
**A.** 10.0

**Q.** Which LD50 at 240 h (in vivo [5]) does the source give for COc1ccc(-c2nn(-c3ccccc3)c(Cl)c2CC(=O)O)cc1 [IV, 5-chloro-3-p-methoxyphenyl-1-phenyl-pyrazole-4-acetic acid] here?
**A.** 1100 mg/kg

**Q.** What about the selectivity ratio (in vivo [5]) of the same molecule?
**A.** 91.7

**Q.** What about the ED25 [3] of the same molecule?
**A.** 12 mg/kg

**Q.** What about the “relative effect (Retardation of the Carrageenin Edema)” value [3] of the same molecule?
**A.** 0.8
